Test results from patent US7268155B2, “Photosensitizer conjugates for pathogen targeting” (The General Hospital Corporation, priority 1997, dated 2007).

Experiments:
[1] = system: HCPC-1 cells; test: Phototoxicity to HCPC-1 cells after irradiation, MTT assay; assay type: cell-based, hamster; conditions: 5 μM photosensitizer, light 630-710 nm, MTT 24 h after irradiation
Description: HCPC-1 cells, 2×10^4 in aliquots of 100 μl growth medium with 10% FCS, were seeded in 96-well plates and cultured for 24 h until 70% confluent. Six wells from each plate were incubated with 5 μM of each photosensitizer and irradiated using the conditions described in Example 3. After illumination, cells were incubated with fresh medium at 37° C. for 24 h. Control cells were incubated under the conditions as in Example 3. Cell viability was determined 24 h after irradiation using the MTT-microculture tetrazolium assay, a method that assesses dehydrogenase activity in mitochondria of live cells (Mosmann T. J. Immunol. Methods 65, 55-63, 1983), and survival fractions were calculated as 570 nm absorbance of treated cells divided by that of unirradiated controls.

[2] = system: P. gingivalis; assay type: cell-based, Porphyromonas gingivalis
Description: In order to establish the effectiveness and selectivity of these conjugates for killing bacteria while sparing mammalian cells, the three conjugates were compared to two widely used clinical photosensitizers, Photofrin II and benzoporphyrin derivative (BPD) (QLT Phototherapeutics Inc., Vancouver, BC). Photosensitizer bulk solid was dissolved in DMSO at 1 mM and diluted in TSB.
Suspensions of P. gingivalis cells (10^8/ml) were incubated in duplicate in the dark at room temperature for 1 min with 5 μm chlorin e6 equivalent of each conjugate, with Photofrin II, and with BPD. Cells were centrifuged, washed once with sterile PBS, and 1 ml fresh TSB was added. In the Example here, the ratios of uptake of chlorin e6 per mg cell protein in P. gingivalis and HCPC-1 cells for the cationic, anionic and neutral conjugates were 46:1, 60:1 and 22:1, respectively.
Bacterial suspensions were added to wells of 12-well plates, and were irradiated in the dark at room temperature using a light emitting diode array which emitted light with wavelengths from 630-710 nm, spanning the absorbance maxima of these photosensitizer compositions. Wells were exposed from below, using fluences from 0 to 25 J/cm^2 at an irradiance of 65 mW/cm^2. Plates were covered during illumination to maintain sterility of the cultures. After illumination of the appropriate wells, serial dilutions of the contents of each well were prepared in TSB, and duplicate 100 μl aliquots were spread on the surfaces of blood agar plates. Survival fractions in each well were calculated by counting the colonies on the plates and dividing by number of colonies from unirradiated controls incubated with photosensitizer in the dark at room temperature for periods equal to irradiation times. Other controls were: bacteria treated neither with photosensitizer nor light, and incubated at room temperature in the dark, and cells exposed to light in the absence of photosensitizer.

[3] = system: P. gingivalis; conditions: cited from earlier work
[4] = system: Porphyromonas gingivalis 381; test: Uptake of chlorin e6 conjugates by P. gingivalis cells (fluorescence of cell extract per mg cell protein); assay type: cell-based; conditions: P. gingivalis 10^9 cells/ml, 1 min incubation, at each concentration (1, 5 and 10 μm chlorin e6 equivalent)
Description: Porphyromonas gingivalis 381, a Gram negative bacterium and one of the most common species in dental plaque, was maintained by weekly subculture in Trypticase Soy Agar (TSA) with 1% hemin, 1% vitamin K and 5% sheep blood. For experimental purposes, the organism was grown anaerobically in a chamber with 80% N2, 10% CO2 at 35° C. for 48 h, harvested by centrifugation and resuspended in Trypticase Soy Broth (TSB) with 1% hemin and 1% vitamin K. Cells were dispersed by sonication and repeated passage through Pasteur pipettes. Cell numbers were measured in a spectrophotometer (at wavelength 600 nm, in which an O.D. of 1 yields 10^8 cells/ml) using one ml tubes, to obtain the appropriate number of bacteria for each experiment (10^9 cells/ml for uptake studies and 10^8 cells/ml for irradiation studies). […]
Fluorescence of each cell extract was measured on a spectrofluorimeter (model FluoroMax, SPEX Industries, Edison, N.J.). The excitation wavelength was 400 nm and emission spectra of cell suspensions were recorded from 580 to 700 nm. The protein content of each cell extract was determined by a modified Lowry method (Markwell M. A. et al. Anal. Biochem. 87:206, 1978) using bovine serum albumin dissolved in 0.1 M NaOH/1% SDS as a protein standard to construct calibration curves. Results were expressed as mol chlorin e6 taken up per mg cell protein.

Row | Substance | killing of HCPC-1 cells (in words) [1] | bacteria killed / reduction in viability of P. gingivalis [2] | further results
1 | benzoporphyrin derivative [BPD, reference compound] | killed HCPC-1 cells | – | killing of P. gingivalis (in words) ([2]; 1 min incubation, light 630-710 nm, fluences 0 to 25 J/cm^2): not P. gingivalis
2 | histatin-5 | – | – | number of molecules that bind P. gingivalis [3]: About 3,600 molecules; Kd ([3]; read-out: Kd of binding to P. gingivalis): ~1000 nM
3 | polylysine chlorin e6 [polylysine-chlorin e6] | – | 99.9% | accumulation of the cationic conjugate compared to the anionic and neutral conjugates [4]: 2 times; HCPC-1 cells killed [1]: less than 2%
4 | polylysine chlorin e6 acetylated [polylysine-chlorin e6-ac] | not HCPC-1 cells | over 90% | –
5 | polylysine chlorin e6-succinylated [polylysine-chlorin e6-succ] | – | 66% | –
